Patent publication US11110158B2, “Prostate-associated antigens and vaccine-based immunotherapy regimens” (Pfizer Inc., priority 2012, dated 2021)
Read-outs that look alike come from different tables or passages of the source.

Assays:
[1] = set-up: species or system Indian Rhesus macaques; settings: rhesus monkey, in vivo, 10 mg/kg
Protocol: Three animals per treatment group were injected with the anti-CTLA-4 antibody Tremelimumab at 10 mg/kg, either with a single intravenous injection into the saphenous vein or multiple 0.2 ml intradermal bilateral injections in the upper thigh in proximity to the inguinal draining lymph nodes. Blood samples were collected at 0, 1, 2, 4, 8, 12, 24, and 48 hrs post injection into 2.0 ml vaccutainer tubes containing lithium heparin as the anticoagulant. Plasma was collected from the supernatant in the vaccutainer tubes after centrifugation at 1500×g at 4° C. for 10 min. The levels of Tremelimumab in the plasma was measured by a quantitative ELISA assay according to the procedure provided below.
Tremelimumab Quantitative ELISA Assay Procedure. The 384-well high bind assay plates (VWR-Greiner Bio-One Cat #82051-264) were coated with 25 μl/well of CD-152 (CTLA-4; Ancell Immunology Research Products Cat #501-020) at 1.0 μg/ml in 100 mM carbonate-bicarbonate coating buffer and incubated overnight at 4° C. […] The colorimetric reaction was stopped by addition of 12.5 μL/well 1N Sulfuric acid and the absorbance then read at 450 nm. The amount of Tremelimumab in each sample was quantified using the standard curve with 0.27 to 67 ng/mL used as the quantitative range.

[2] = system: rhesus PSMA; assay: IFNγ ELISPOT of PBMCs, rhesus PSMA adenovirus with subcutaneous anti-CTLA-4 in Indian rhesus macaques; assay type: in vivo; settings: versus vaccine alone
Protocol: Five groups of male Indian rhesus macaques, seven (#1 to 7) per each test group, were immunized with an adenovirus encoding a rhesus PSMA modified polypeptide delivered by bilateral intramuscular injections (2×5e10 V.P.). Immediately following the adenovirus injections, group 1 received vehicle, and groups 2 to 4 received bilateral subcutaneous injections of anti-CTLA-4 antibody (CP-675, 206) at doses 2×25 mg, 2×16.7 mg and 2×8.4 mg respectively in proximity to the vaccine draining lymph node.
Nine days after the immunization, peripheral blood mononuclear cells (PBMCs) were isolated from each animal and were subjected to an IFNγ ELISPOT assay to measure the rhesus PSMA specific T cell responses. Briefly, 4e5 PBMCs from individual animals were plated per well with pools of rhesus PSMA specific peptides (P1, P2, P3 or R1+R2 defined in table 24A) or nonspecific control peptides (human HER2 peptide pool) each at 2 ug/ml in IFNγ ELISPOT plates. The plates were incubated for 16 hrs at 37° C. and 5% CO2 and washed and developed after incubation as per manufacturer's instruction. The number of IFNγ spot forming cells (SFC) were counted by CTL reader. Each condition was performed in duplicates. The average of the duplicates from the background adjusted SFC of the rhesus PSMA specific peptide pools was normalized to the response in 1e6 PBMCs.
A capture antibody specific to IFNγ […]BD Bioscience, #51-2525kc) is coated onto a polyvinylidene fluoride (PVDF) membrane in a microplate overnight at 4° C. The plate is blocked with serum/protein to prevent nonspecific binding to the antibody. After blocking, effector cells (such as splenocytes isolated from immunized mice or PBMCs isolated from rhesus macaques) and targets (such as PSMA peptides from peptide library, target cells pulsed with antigen specific peptides or tumor cells expressing the relevant antigens) are added to the wells and incubated overnight at 37° C. in a 5% CO2 incubator. Cytokine secreted by effector cells are captured by the coating antibody on the surface of the PVDF membrane. […]

With “Tremelimumab: fully human IgG2 anti-CTLA-4 monoclonal antibody, CAS 745013-59-6, SEQ ID NOs:42 and 43” the AUC0-24 [1] was 4900 µg·h/mL, the AUC0-24 ([1]; iv) was 7200 µg·h/mL and the “rhesus PSMA specific IFNγ T cell response” value ([2]; group 2: 50 mg (2×25 mg) subcutaneous near vaccine draining lymph node, P=0.001) was “significantly enhanced”. The “rhesus PSMA specific IFNγ T cell response” value ([2]; group 3: 33.4 mg subcutaneous, P=0.004) was “significantly enhanced” and the “rhesus PSMA specific IFNγ T cell response” value ([2]; group 4: 16.7 mg subcutaneous, P=0.05) was “significantly enhanced”.
